Measured values from PubChem BioAssay (NCI).
Where “and” joins values, the source holds several entries; their conditions need not be identical. Equal entries are not always repeated.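 Results reflect a 48-hour exposure of cells in 96-well plates to compound at five concentrations. GI50: concentration for 50% inhibition of growth. TGI is the concentration that stops growth completely.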

Columns and labels:
Test in all cases: growth of human tumour cells (NCI), 48 h
DMS 273 small cell lung = test system: DMS 273 small cell lung
SNB-78 CNS = test system: SNB-78 CNS
RXF-631 renal = test system: RXF-631 renal
M19-MEL melanoma = test system: M19-MEL melanoma
XF 498 CNS = test system: XF 498 CNS
DLD-1 colon = test system: DLD-1 colon
KM20L2 colon = test system: KM20L2 colon
LXFL 529 NSCLC = test system: LXFL 529 NSCLC
MDA-N = test system: MDA-N

Structure (SMILES)	TGI (DMS 273 small cell lung)	TGI (SNB-78 CNS)	TGI (RXF-631 renal)	TGI (M19-MEL melanoma)	TGI (XF 498 CNS)	TGI (DLD-1 colon)	TGI (KM20L2 colon)	TGI (LXFL 529 NSCLC)	TGI (MDA-N)	GI50 (MDA-N)	GI50 (DMS 273 small cell lung)	GI50 (SNB-78 CNS)	GI50 (M19-MEL melanoma)	GI50 (XF 498 CNS)	GI50 (DLD-1 colon)	GI50 (KM20L2 colon)	GI50 (LXFL 529 NSCLC)
CN(C)C(=S)/N=c1\sn(C)/c(=N\C(=S)N(C)C)n1C	> 100 µM	> 100 µM	> 100 µM	69.7 µM	> 100 µM	> 100 µM	> 100 µM	> 100 µM									
CCCCCCCCCCCCCCCC(=O)OCCOCCOCCOCc1ccccc1	> 100 µM	> 100 µM		> 100 µM	> 100 µM	> 100 µM											
NNC(=O)CNc1cccc(Br)c1									> 100 µM								
C#CC1/C(=C\C(=O)OC)CCCC1O (stereo not drawn)	> 100 µM	> 100 µM		> 100 µM	> 100 µM	> 100 µM	> 100 µM	> 100 µM									
COCC(OC)C(CC=C(C#N)C#N)OC (stereo not drawn)	> 100 µM	> 100 µM		> 100 µM	> 100 µM		> 100 µM	> 100 µM									
CC(C)C1=Cc2ccc3c(c2C(=O)C1=O)CCCC3(C)C	14.8 µM	16.6 µM		6.99 µM		5.08 µM	42.7 µM	3.45 µM									
C/C(N=NC(=S)N1CC2CCC(CC2)C1)=C1\C=CC=CN1O	24.2 µM	> 100 µM	> 100 µM	23.3 µM	91.2 µM	> 100 µM	> 100 µM		> 100 µM								
O=C1N=C2Sc3ccc4ccccc4c3N2C1=O	53.2 µM	79.5 µM	51.9 µM	> 100 µM	41.3 µM	95 µM	64.4 µM	37.7 µM									
N#CC(C(=O)/C(=N\NC(N)=O)C(C#N)c1ccc(Cl)cc1)c1ccc(Cl)cc1 (stereo not drawn)		> 100 µM	> 100 µM	> 100 µM	> 100 µM	> 100 µM	> 100 µM	> 100 µM									
CCC(C)(C)c1ccc(OCCCCNC(=O)c2ccc3ccccc3c2O)c(C(C)(C)CC)c1									> 100 µM								
COC1C(OC(=S)Nc2ccccc2)c2ccccc2N1C(C)=O (stereo not drawn)	> 100 µM	> 100 µM		> 100 µM	> 100 µM	> 100 µM	> 100 µM	> 100 µM									
CCCC(=O)Nc1cn(COC)c(C(=O)N2C[C@@H]3C[C@]34C2=CC(=O)c2[nH]cc(C)c24)n1									19.3 µM and 31.3 µM	12.7 µM							
NS(=O)(=O)c1ccc(N=Nc2c(O)c(C(=O)O)cc3ccccc23)cc1									> 100 µM								
Cc1c(N(C)C)ccc2c(=O)c3cccc(CC(=O)O)c3oc12	> 100 µM	> 100 µM	> 100 µM	> 100 µM		> 100 µM	> 100 µM		> 100 µM								
COc1ccc(CCN(C)C2CCC(C#N)(c3ccc(OC)c(OC)c3)CC2)cc1OC (stereo not drawn)	> 100 µM		> 100 µM	> 100 µM	> 100 µM	> 100 µM	> 100 µM	> 100 µM									
C=CCCCCC1CCC2CCC(CCCCC=C)N12 (stereo not drawn)	37.5 µM			37.3 µM			25.7 µM	26.9 µM									
COC(=O)/C(=N\NC(N)=S)C(C(=O)OC)C(=O)C(=O)Nc1ccc(C)cc1 (stereo not drawn)	> 100 µM	> 100 µM	> 100 µM	> 100 µM	> 100 µM	> 100 µM	> 100 µM	> 100 µM									
CCC[CH2][Sn]([CH2]CCC)([O]C(=O)c1ccc(OC)c(OC)c1OC)[O][Sn]([CH2]CCC)([CH2]CCC)[O]C(=O)c1ccc(OC)c(OC)c1OC	1.54 µM	0.211 µM		1.05 µM	0.229 µM	0.419 µM	2.12 µM	0.0938 µM	1.66 µM	0.357 µM	0.334 µM	0.0392 µM	0.21 µM	0.104 µM	0.147 µM	0.76 µM	0.02 µM
CC(C)(C)c1cc(C(P(=O)(O)O)P(=O)(O)O)cc(C(C)(C)C)c1O	> 100 µM	> 100 µM		> 100 µM		> 100 µM	> 100 µM	> 100 µM									
COc1ccc(OCC(=O)O)c2c1CCCC2=O	> 100 µM	> 100 µM	> 100 µM	> 100 µM	> 100 µM	> 100 µM		> 100 µM									
O=C(OC1CCC(=C2SCCCS2)[C@H]1C1SCCCS1)c1ccccc1 (stereo partly drawn)	> 100 µM		> 100 µM	> 100 µM		> 100 µM	> 100 µM	> 100 µM									
